Test results taken from ChEMBL document CHEMBL4813953, “Kinetics-Driven Drug Design Strategy for Next-Generation Acetylcholinesterase Inhibitors to Clinical Candidate” (J Med Chem, 2021).
The source made the active and inactive calls. No cut-off for these calls is given here.

Tests used:
[1] = Tmax in human plasma at 8 mg, po; format: ADME, cell-free
[2] = Cmax in Sprague-Dawley rat brain at 10 mg/kg, po; format: ADME, organism-based; set-up: route oral, dose 10 mg/kg
Butyrylcholinesterase = Butyrylcholinesterase (Rattus norvegicus, UniProt Q9JKC1); assay: Inhibition of rat serum BuChE using S-butyrylthiocholine iodide as substrate incubated for 8 mins by Ellman's method; format: cell-free
[3] = Cmax in Beagle dog at 0.25 mg/kg, po; format: ADME, organism-based, Canis lupus familiaris; set-up: route oral, dose 0.25 mg/kg; details: in vivo
[4] = Tmax in Sprague-Dawley rat brain at 10 mg/kg, po; format: ADME, organism-based
[5] = Terminal half life in human plasma at 12 mg, po; format: ADME, cell-free; details: read-out: beta t1/2 (converted)
Cytochrome P450 3A4 = Cytochrome P450 3A4 (Homo sapiens, UniProt P08684); assay: Inhibition of CYP3A4 in human hepatocytes; format: ADME, cell-based, Hepatocyte
Mus musculus = assay: Improvement in learning and spatial memory in APP/PS1 double mutant-transgenic mouse model assessed as increase in time spent in target quadrant at 0.5 to 1 mg/kg, IG QD by Morris water maze test; format: functional, organism-based; details: dose 0.5-1 mg/kg
[6] = Toxicity in Sprague-Dawley rat assessed as animal death at upto 30 mg/kg, po for 4 weeks; format: organism-based; details: in vivo, 672 h
[7] = MRT (0 to infinity) in Sprague-Dawley rat at 0.5 mg/kg, iv; format: ADME, organism-based; details: in vivo
[8] = Genotoxicity in Salmonella typhimurium TA97 by Ames test; format: toxicity; details: salmonella enterica subsp. enterica serovar typhimurium
[9] = Oral bioavailability in Sprague-Dawley rat at 0.5 mg/kg; format: ADME, organism-based; details: in vivo
[10] = AUC (0 to infinity) in Sprague-Dawley rat at 0.5 mg/kg, po; format: ADME, organism-based; set-up: time infinity, route oral, dose 0.5 mg/kg; details: in vivo
[11] = Tmax in human plasma at 1 mg, po; format: ADME, cell-free
[12] = Genotoxicity in Salmonella typhimurium TA102 by Ames test; format: toxicity; details: salmonella enterica subsp. enterica serovar typhimurium
[13] = biological target: T1, Acetylcholinesterase (Mus musculus) (UniProt P21836); assay: Ex vivo inhibition of AChE in ICR mouse cortex homogenate at 2 mg/kg, ig using acetylthiocholine iodide as substrate measured after 30 to 240 mins by DTNB reagent based assay; format: functional, organism-based; details: time 30-240 min
T1 sequence (whole entry): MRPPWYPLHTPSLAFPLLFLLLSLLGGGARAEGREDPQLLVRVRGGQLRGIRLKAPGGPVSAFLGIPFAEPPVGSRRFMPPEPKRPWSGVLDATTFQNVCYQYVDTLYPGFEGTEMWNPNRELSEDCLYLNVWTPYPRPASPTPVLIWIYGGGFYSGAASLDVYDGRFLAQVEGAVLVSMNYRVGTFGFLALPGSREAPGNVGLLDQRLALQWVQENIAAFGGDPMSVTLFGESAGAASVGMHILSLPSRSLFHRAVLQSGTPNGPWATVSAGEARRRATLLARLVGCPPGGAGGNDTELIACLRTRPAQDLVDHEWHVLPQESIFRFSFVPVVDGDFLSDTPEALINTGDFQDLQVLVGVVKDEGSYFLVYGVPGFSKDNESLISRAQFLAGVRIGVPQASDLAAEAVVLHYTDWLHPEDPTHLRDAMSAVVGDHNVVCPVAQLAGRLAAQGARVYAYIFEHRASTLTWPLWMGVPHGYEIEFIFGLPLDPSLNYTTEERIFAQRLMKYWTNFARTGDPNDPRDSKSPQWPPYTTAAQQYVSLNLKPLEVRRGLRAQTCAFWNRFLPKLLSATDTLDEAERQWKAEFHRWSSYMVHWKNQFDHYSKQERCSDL

[14] = Terminal half life in human plasma at 1 mg, po; format: ADME, cell-free; details: read-out: beta t1/2 (converted)
[15] = AUC (0 to infinity) in Sprague-Dawley rat at 0.5 mg/kg, iv; format: ADME, organism-based; set-up: time infinity, route intravenous, dose 0.5 mg/kg; details: in vivo
[16] = Cmax in human plasma at 2 mg, po; format: ADME, cell-free; set-up: route oral, dose 2 mg
[17] = biological target: T1, Acetylcholinesterase (Mus musculus); assay: Ex vivo inhibition of AChE in ICR mouse hippocampal homogenate at 2 mg/kg, ig using acetylthiocholine iodide as substrate measured after 30 to 240 mins by DTNB reagent based assay; format: functional, organism-based; details: time 30-240 min
[18] = Genotoxicity in ICR mouse at 7.5 to 30 mg/kg, po administered once a day for 2 consecutive days by micronucleus test; format: toxicity, organism-based; details: in vivo, 48 h, dose 7.5-30 mg/kg, time 2 day
Cytochrome P450 2C19 = Cytochrome P450 2C19 (Homo sapiens, UniProt P33261); assay: Inhibition of CYP2C19 in human hepatocytes; format: ADME, cell-based, Hepatocyte
Cytochrome P450 1A2 = biological target: T2, Cytochrome P450 1A2 (Homo sapiens, UniProt P05177); assay: Inhibition of CYP1A2 in human hepatocytes; format: ADME, cell-based, Hepatocyte
T2 sequence (P05177 whole entry): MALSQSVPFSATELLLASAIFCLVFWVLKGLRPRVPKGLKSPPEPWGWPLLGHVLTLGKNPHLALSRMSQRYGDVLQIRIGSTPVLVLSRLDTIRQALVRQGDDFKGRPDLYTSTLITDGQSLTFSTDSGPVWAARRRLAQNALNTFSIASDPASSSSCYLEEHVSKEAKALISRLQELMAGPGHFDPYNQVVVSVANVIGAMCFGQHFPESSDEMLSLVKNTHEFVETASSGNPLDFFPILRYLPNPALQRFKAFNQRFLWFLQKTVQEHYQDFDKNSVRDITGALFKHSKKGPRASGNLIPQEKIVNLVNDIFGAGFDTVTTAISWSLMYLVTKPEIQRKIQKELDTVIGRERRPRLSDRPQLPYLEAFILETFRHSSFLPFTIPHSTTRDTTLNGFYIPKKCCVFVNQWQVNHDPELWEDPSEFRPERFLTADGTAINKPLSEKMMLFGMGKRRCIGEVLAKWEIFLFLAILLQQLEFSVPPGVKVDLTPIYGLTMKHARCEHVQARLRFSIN

[19] = Selectivity ratio of IC50 for human ERG to IC50 for rat cortex homogenate acetylcholinesterase
Cytochrome P450 2C9 = Cytochrome P450 2C9 (Homo sapiens, UniProt P11712); assay: Inhibition of CYP2C9 in human hepatocytes; format: ADME, cell-based, Hepatocyte
Cytochrome P450 2B6 = biological target: T3, Cytochrome P450 2B6 (Homo sapiens, UniProt P20813); assay: Inhibition of CYP2B6 in human hepatocytes; format: ADME, cell-based, Hepatocyte
T3 sequence (P20813 whole entry): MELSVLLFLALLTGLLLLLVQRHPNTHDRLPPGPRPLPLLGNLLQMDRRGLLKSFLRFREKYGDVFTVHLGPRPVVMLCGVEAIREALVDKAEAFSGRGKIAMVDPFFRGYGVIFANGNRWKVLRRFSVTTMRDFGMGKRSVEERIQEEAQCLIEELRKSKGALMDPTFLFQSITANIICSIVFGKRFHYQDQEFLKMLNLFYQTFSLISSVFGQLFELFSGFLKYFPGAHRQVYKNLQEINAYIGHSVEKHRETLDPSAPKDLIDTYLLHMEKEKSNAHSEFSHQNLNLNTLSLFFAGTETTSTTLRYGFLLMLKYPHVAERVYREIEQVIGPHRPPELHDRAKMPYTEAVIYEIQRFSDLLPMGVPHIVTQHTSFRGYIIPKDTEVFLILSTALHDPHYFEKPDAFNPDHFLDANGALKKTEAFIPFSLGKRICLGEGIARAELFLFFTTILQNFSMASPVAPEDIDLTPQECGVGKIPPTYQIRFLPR

Sequence of Cytochrome P450 2C9 (P11712 whole entry): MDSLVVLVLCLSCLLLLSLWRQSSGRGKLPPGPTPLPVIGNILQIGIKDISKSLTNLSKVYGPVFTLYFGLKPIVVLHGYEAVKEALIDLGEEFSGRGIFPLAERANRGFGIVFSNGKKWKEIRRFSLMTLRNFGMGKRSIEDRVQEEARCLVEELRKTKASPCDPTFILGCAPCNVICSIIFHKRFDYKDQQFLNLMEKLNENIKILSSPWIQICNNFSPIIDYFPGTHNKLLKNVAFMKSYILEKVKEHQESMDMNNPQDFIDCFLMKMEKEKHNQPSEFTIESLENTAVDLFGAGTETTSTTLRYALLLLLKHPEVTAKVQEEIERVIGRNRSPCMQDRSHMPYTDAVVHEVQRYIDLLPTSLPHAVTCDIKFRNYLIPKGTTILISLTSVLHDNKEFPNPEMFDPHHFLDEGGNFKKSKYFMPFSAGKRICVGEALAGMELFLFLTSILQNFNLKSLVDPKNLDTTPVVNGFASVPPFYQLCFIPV
Sequence of Butyrylcholinesterase (Q9JKC1 whole entry): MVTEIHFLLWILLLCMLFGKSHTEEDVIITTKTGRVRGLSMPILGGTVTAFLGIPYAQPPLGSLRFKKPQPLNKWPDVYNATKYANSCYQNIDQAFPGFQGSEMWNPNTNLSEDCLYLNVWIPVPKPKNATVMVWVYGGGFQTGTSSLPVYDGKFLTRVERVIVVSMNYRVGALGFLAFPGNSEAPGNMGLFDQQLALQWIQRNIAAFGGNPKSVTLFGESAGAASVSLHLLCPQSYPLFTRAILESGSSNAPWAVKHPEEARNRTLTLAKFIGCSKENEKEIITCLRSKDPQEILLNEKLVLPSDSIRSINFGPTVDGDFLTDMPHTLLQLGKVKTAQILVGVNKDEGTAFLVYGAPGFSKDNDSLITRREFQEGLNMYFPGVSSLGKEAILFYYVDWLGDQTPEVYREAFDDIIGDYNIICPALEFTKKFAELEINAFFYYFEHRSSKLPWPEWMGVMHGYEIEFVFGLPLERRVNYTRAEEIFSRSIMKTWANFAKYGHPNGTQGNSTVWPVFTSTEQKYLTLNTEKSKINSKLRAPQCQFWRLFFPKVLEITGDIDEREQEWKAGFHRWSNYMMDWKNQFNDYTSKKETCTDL
Sequence of Cytochrome P450 3A4 (P08684 whole entry): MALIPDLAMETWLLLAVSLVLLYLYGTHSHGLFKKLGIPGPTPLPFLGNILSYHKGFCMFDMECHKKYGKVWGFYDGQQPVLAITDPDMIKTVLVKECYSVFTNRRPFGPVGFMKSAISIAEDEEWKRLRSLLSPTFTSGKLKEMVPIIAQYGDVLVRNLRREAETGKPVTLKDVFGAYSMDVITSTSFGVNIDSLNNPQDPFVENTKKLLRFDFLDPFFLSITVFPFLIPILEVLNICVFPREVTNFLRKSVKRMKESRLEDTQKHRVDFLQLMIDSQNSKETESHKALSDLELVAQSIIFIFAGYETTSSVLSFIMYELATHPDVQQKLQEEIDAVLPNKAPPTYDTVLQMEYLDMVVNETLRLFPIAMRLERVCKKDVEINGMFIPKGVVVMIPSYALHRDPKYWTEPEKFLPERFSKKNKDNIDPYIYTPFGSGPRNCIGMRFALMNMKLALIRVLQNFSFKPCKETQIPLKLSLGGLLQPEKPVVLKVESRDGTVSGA
Sequence of Cytochrome P450 2C19 (P33261 whole entry): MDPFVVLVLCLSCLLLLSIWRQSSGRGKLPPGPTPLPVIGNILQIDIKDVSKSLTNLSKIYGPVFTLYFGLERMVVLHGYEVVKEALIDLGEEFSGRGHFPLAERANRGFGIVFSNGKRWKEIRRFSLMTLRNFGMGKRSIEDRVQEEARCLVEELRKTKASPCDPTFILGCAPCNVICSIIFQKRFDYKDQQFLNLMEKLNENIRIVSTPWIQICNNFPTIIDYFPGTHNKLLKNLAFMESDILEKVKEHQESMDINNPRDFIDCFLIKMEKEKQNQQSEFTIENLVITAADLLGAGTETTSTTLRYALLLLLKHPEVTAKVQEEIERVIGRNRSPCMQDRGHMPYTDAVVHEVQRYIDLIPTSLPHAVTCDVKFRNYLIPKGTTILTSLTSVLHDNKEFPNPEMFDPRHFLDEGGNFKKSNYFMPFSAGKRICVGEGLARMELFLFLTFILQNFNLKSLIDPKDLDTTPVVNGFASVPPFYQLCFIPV

**Q.** Which Tmax [1] does the source give for `COc1cc2c(cc1OC)C(=O)C(CC1(F)CCN(Cc3ccccc3F)CC1)C2` (stereo unspecified) here?
**A.** The Tmax was 1.13 h.

**Q.** What about the Cmax [2] of the same molecule?
**A.** Its Cmax is 831 ng/mL.

**Q.** What about the IC50 (Butyrylcholinesterase) of the same molecule?
**A.** Its IC50 is 31.7 µM.

**Q.** What about the Cmax [3] of the same molecule?
**A.** The Cmax was 16.9 ng/mL.

**Q.** And the Tmax [4]?
**A.** Its Tmax is 0.5 h.

**Q.** What about the half-life [5] of the same molecule?
**A.** Its half-life is 32.1 h.

**Q.** And the IC50 (Cytochrome P450 3A4)?
**A.** The IC50 was > 30 µM.

**Q.** What about the Activity (Mus musculus) of the same molecule?
**A.** The Activity was “Active”.

**Q.** What about the Activity [6] of the same molecule?
**A.** The Activity was “Non-Toxic”.

**Q.** What about the MRT inf [7] of the same molecule?
**A.** Its MRT inf is 5.21 h.

**Q.** And the Activity [8]?
**A.** The Activity was “Non-Toxic”.

**Q.** And the bioavailability [9]?
**A.** Its bioavailability is 45.3%.

**Q.** And the AUC(0-inf) [10]?
**A.** The AUC(0-inf) was 179 ng·h/mL.

**Q.** What about the Tmax [11] of the same molecule?
**A.** The Tmax was 1.5 h.

**Q.** What about the Activity [12] of the same molecule?
**A.** Its Activity is “Non-Toxic”.

**Q.** And the inhibition [13]?
**A.** Its inhibition is “Active”.

**Q.** And the half-life [14]?
**A.** The half-life was 14.2 h.

**Q.** And the AUC(0-inf) [15]?
**A.** The AUC(0-inf) was 395 ng·h/mL.

**Q.** And the Cmax [16]?
**A.** Its Cmax is 2.43 ng/mL.

**Q.** What about the inhibition [17] of the same molecule?
**A.** Its inhibition is “Active”.

**Q.** What about the Activity [18] of the same molecule?
**A.** The Activity was “Non-Toxic”.

**Q.** What about the IC50 (Cytochrome P450 2C19) of the same molecule?
**A.** Its IC50 is > 30 µM.

**Q.** What about the IC50 (Cytochrome P450 1A2) of the same molecule?
**A.** Its IC50 is > 30 µM.

**Q.** And the Ratio IC50 [19]?
**A.** Its Ratio IC50 is 10700.

**Q.** What about the IC50 (Cytochrome P450 2C9) of the same molecule?
**A.** The IC50 was 4.77 µM.

**Q.** And the IC50 (Cytochrome P450 2B6)?
**A.** Its IC50 is > 30 µM.
